Here are results for 1 substance from US11179341B2, “Self-righting articles” (priority 2017, dated 2021).

The test relates to Micrococcus lysodeikticus cells. The test is described as follows: Lysozyme enzyme activity assay. The class given is biochemical. The conditions noted are these: micropost tips 80% lysozyme and 20% PEO 200 k, versus uncompressed powder. The method, then: To measure the activity of lysozyme, the assay provided by Sigma Aldrich was used which measures the amount of lysed Micrococcus lysodeikticus cells. Briefly, a 200 unit/mL Lysozyme solution in 50 mM Potassium Phosphate Buffer was added to a 0.015% [w/v] Micrococcus lysodeikticus cell suspension in the same buffer. The decrease was recorded in A450 over 5 minutes. Nine micropost tips were fabricated from 80% lysozyme and 20% PEO 200 k and dissolved sets of three micropost tips together. Triplicate assays were performed on each dissolved solution for a total of nine tests and the results were compared to the results of a solution made with lysozyme that was not compressed into a micropost tip.

On to lysozyme, for which the “lysozyme activity after the manufacturing process” value is listed as “maintain their activity”.
